Assay results reported in the NIST ThermoML archive (doi:10.1021/acs.jced.8b00566).
Numbers after ± are expanded uncertainties.

Legend:
[1] = Crystal; DSC
[2] = Molar enthalpy of transition or fusion; conditions: Crystal; DSC

Structure (SMILES) | Triple point temperature [1] | Molar enthalpy of transition or fusion [2]
CC(=O)O[C@H]1CC[C@@]2(C)C(=CC[C@@H]3[C@@H]2CC[C@]2(C)C(c4cccnc4)=CC[C@@H]32)C1 [abiraterone acetate] | 419.3 ± 0.8 K | 25.8 ± 1 kJ/mol
C[C@]12CC[C@H](O)CC1=CC[C@@H]1[C@@H]2CC[C@]2(C)C(c3cccnc3)=CC[C@@H]12 [abiraterone] | 501.4 ± 0.8 K | 45.1 ± 1.2 kJ/mol
